IC50 data for 8 compounds are collected here from EP4778931A1, “ULK1 INHIBITOR, PREPARATION METHOD THEREFOR AND USE THEREOF” (Dovetree Medicines Unus, Inc., priority 2023, dated 2025).

The assay deals with T1, ULK1 (Homo sapiens, UniProt O75385).
T1 construct: purchased Promega V3521
T1 sequence (O75385 1-1050): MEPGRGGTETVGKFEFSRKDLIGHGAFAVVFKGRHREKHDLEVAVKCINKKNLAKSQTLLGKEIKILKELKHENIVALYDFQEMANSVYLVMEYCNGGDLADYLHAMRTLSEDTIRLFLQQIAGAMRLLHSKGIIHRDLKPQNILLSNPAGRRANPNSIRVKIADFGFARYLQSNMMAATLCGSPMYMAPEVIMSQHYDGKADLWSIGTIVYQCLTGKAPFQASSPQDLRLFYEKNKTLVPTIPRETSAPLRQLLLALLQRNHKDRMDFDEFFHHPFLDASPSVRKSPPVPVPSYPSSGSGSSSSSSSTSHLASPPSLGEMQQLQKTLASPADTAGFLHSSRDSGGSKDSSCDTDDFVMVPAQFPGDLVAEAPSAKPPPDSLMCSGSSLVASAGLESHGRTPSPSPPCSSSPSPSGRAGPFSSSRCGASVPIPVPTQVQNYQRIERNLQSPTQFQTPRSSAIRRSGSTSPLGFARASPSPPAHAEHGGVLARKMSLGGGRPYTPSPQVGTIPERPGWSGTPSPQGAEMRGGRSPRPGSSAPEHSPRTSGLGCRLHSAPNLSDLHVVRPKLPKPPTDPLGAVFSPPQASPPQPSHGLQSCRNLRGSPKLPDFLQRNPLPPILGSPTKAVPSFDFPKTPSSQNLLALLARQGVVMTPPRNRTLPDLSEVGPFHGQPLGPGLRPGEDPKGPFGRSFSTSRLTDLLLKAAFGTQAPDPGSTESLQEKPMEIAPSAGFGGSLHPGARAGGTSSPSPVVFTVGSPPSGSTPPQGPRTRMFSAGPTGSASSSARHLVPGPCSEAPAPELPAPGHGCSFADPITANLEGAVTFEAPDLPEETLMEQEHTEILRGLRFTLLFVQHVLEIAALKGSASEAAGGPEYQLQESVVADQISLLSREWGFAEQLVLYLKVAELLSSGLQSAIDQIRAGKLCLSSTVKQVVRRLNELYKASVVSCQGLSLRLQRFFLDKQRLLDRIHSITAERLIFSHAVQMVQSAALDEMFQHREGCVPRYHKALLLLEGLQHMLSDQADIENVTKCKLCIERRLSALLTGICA
The experiment in a line: Inhibition of ULK1 protein activity (phosphorylation function), ADP-Glo method. Type of assay: biochemical. Particulars: ADP-Glo; ULK1 (Promega), ATP and MBP substrate, 60 min at room temperature; 10 concentrations, maximum 10 µM; read-out: ULK1 IC50. The procedure: In this experiment, the inhibitory effect of a compound on the phosphorylation function of ULK1 was detected by ADP-Glo method. The inhibitory effect of the compound of the present disclosure on the ULK1 target was evaluated based on IC50.
Compound formulation: Using an ECHO (Beckman, ECHO650), the compound was serially diluted 3-fold in DMSO in a 384-well plate (PE, 6007290). A total of 10 concentration points were set, with the maximum concentration of the compound being 10 µM, and 50 nL per well. Positive control wells and negative control wells were added with 50 nL DMSO, respectively.
Reaction process: A 32 nM of ULK1 (Promega, V3521) solution was formulated, and 2.5 µL/well was transferred to the compound test wells and the negative control wells (NC). 2.5 µL/well of 1× Assay buffer was added to the positive control wells (PC). A mixed solution of 100 µM of ATP and 1.86 µM of MBP was formulated, and 2.5 µL/well was transferred to the reaction plate. After centrifugation, the reaction was initiated and incubated at room temperature for 60 min. After the reaction was completed, 5 µL/well of ADP-Glo Reagent (Promega, V9102) was added to the reaction plate. After centrifugation, the reaction was incubated at room temperature for 40 minutes. Finally, 10 µL/well of Kinase Detection Buffer was added, followed by centrifugation and incubation at room temperature for 30 min. The chemiluminescence value was read using Envision (PE, Envision2105).
Assay buffer: a reaction buffer; and Kinase Detection buffer: a detection buffer, both were taken from the ADP-Glodetection kit, purchased from Promega, model V9102.
The inhibition ratio of a compound on ULK1 activity was calculated using the following formula: [formula]
The dose-effect curve was fitted using the log(inhibitor) vs. response -Variable slope of the analysis software GraphPad Prism 8, thereby affording the IC50 value of each compound for enzyme activity.
For orientation: ADP-Glo turns the ADP formed in a reaction into a luminescent signal.
One may read the IC50 as the point on the concentration scale where inhibition reaches its midpoint. Consider `CN1CCN2c3ccc(Nc4ncc(C(F)(F)F)c(O[C@H]5CC[C@@H](n6cccn6)CC5)n4)cc3COCC2C1` (some centres unmarked) [Compound 7], for which the IC50 was below 0.1 µM. As for `CN1CCN2c3ccc(Nc4ncc(C(F)(F)F)c(OCCCn5nccc5Cl)n4)cc3COCC2C1` (centres unmarked) [Compound 10], the IC50 is below 0.1 µM. Turning to `CN1CCC2(CC1)CCN(c1nc(Nc3ccc4c(c3)COCC3CN(C)CCN43)ncc1C(F)(F)F)CC2` (centres unmarked) [Compound 13], the IC50 was in the range of 0.1 to 1 µM. On to `CN1CCN2c3ccc(Nc4ncc(C(F)(F)F)c(OCCCN5CCCCC5=O)n4)cc3N(C)C(=O)C2C1` (centres unmarked) [Compound 14], for which the IC50 is below 0.1 µM. The value for `CN1CCN2c3ccc(Nc4ncc(C(F)(F)F)c(OCCCN5CCCCC5=O)n4)cc3OCCC2C1` (centres unmarked) [Compound 15] was below 0.1 µM; that for `CN1CCN2c3ccc(Nc4ncc(C(F)(F)F)c(OCCCN5CCCOC5=O)n4)cc3COCC2C1` (centres unmarked) [Compound 16] was below 0.1 µM; that for `CC(=O)N1CCN2c3ccc(Nc4ncc(C(F)(F)F)c(N5CCC6(CCN(C)C6)C5)n4)cc3COCC2C1` (centres unmarked) [Compound 18] was below 0.1 µM. As to `CN1CCC2(CCN(c3nc(Nc4ccc5c(c4)COCC4CN(C6COC6)CCN54)ncc3C(F)(F)F)C2)C1` (centres unmarked) [Compound 19], the IC50 was below 0.1 µM.
